Measurements as given in the supplement of paper PMC10307832.

Assays:
Experiment in all cases: relative viability (nuclei count vs DMSO), 5 days (fraction); higher = more cells survive
BI-2536 + Pictilisib = compound: CC[C@@H]1C(=O)N(C)c2cnc(Nc3ccc(C(=O)NC4CCN(C)CC4)cc3OC)nc2N1C1CCCC1 [BI-2536] + CS(=O)(=O)N1CCN(Cc2cc3nc(-c4cccc5[nH]ncc45)nc(N4CCOCC4)c3s2)CC1 [Pictilisib] (partner 1 µM)
In short: (§1)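 One day after seeding in 1536-well plates, lung cancer cell lines were dosed by pin tool. Dosing was either single-drug or a fixed anchor-drug dose plus five library-drug doses (not always all listed) in √10 steps. After 5 days, nuclei were stained in one fix-and-stain step and counted on 4× images, and relative viability is the nuclei count of treated wells over that of vehicle wells, given as the median of duplicate plates.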

[1] = compound: CC1CC(=O)N(C2=CN=C(N=C2N1C3CCCC3)NC4=C(C=C(C=C4)C(=O)NC5CCN(CC5)C)OC)C [NPK76-II-72-1] + Cc1nc(Nc2ncc(C(=O)Nc3c(C)cccc3Cl)s2)cc(N2CCN(CCO)CC2)n1 [Dasatinib] (partner 0.075 µM)
In short: as §1

BI-2536 + Olaparib = compound: CC[C@@H]1C(=O)N(C)c2cnc(Nc3ccc(C(=O)NC4CCN(C)CC4)cc3OC)nc2N1C1CCCC1 [BI-2536] + O=C(c1cc(Cc2n[nH]c(=O)c3ccccc23)ccc1F)N1CCN(C(=O)C2CC2)CC1 [Olaparib] (partner 8 µM)
In short: as §1

NPK76-II-72-1 + Olaparib = compound: CC1CC(=O)N(C2=CN=C(N=C2N1C3CCCC3)NC4=C(C=C(C=C4)C(=O)NC5CCN(CC5)C)OC)C [NPK76-II-72-1] + O=C(c1cc(Cc2n[nH]c(=O)c3ccccc23)ccc1F)N1CCN(C(=O)C2CC2)CC1 [Olaparib] (partner 8 µM)
In short: as §1

**Q.** For UMC-11, which relative viability (BI-2536 + Pictilisib; first compound 0.01 µM) is on record?
**A.** 0.851

**Q.** What about the relative viability (BI-2536 + Pictilisib; first compound 0.03162 µM) of the same cell line?
**A.** 0.647

**Q.** And the relative viability (BI-2536 + Pictilisib; first compound 0.1 µM)?
**A.** 0.11

**Q.** And the relative viability (BI-2536 + Pictilisib; first compound 0.3162 µM)?
**A.** 0.153

**Q.** What about the relative viability (BI-2536 + Pictilisib; first compound 1 µM) of the same cell line?
**A.** 0.14

**Q.** And the relative viability ([1]; first compound 0.01 µM)?
**A.** 0.45

**Q.** What about the relative viability ([1]; first compound 0.03162 µM) of the same cell line?
**A.** 0.509

**Q.** What about the relative viability ([1]; first compound 0.1 µM) of the same cell line?
**A.** 0.441

**Q.** And the relative viability ([1]; first compound 1 µM)?
**A.** 0.447

**Q.** And the relative viability (BI-2536 + Olaparib; first compound 0.01 µM)?
**A.** 0.389

**Q.** What about the relative viability (BI-2536 + Olaparib; first compound 0.03162 µM) of the same cell line?
**A.** 0.414

**Q.** What about the relative viability (BI-2536 + Olaparib; first compound 0.1 µM) of the same cell line?
**A.** 0.251

**Q.** And the relative viability (BI-2536 + Olaparib; first compound 0.3162 µM)?
**A.** 0.218

**Q.** What about the relative viability (BI-2536 + Olaparib; first compound 1 µM) of the same cell line?
**A.** 0.209

**Q.** What about the relative viability (NPK76-II-72-1 + Olaparib; first compound 0.01 µM) of the same cell line?
**A.** 0.381

**Q.** And the relative viability (NPK76-II-72-1 + Olaparib; first compound 0.03162 µM)?
**A.** 0.339

**Q.** What about the relative viability (NPK76-II-72-1 + Olaparib; first compound 0.1 µM) of the same cell line?
**A.** 0.386

**Q.** And the relative viability (NPK76-II-72-1 + Olaparib; first compound 0.3162 µM)?
**A.** 0.358

**Q.** And the relative viability (NPK76-II-72-1 + Olaparib; first compound 1 µM)?
**A.** 0.403
